Patent US6458557B1, “Enhancing growth in gram-positive microorganisms using formate supplementation and inactivation of formate-associated transport proteins” (Genencor International, Inc., priority 1997, dated 2002)

Experiments:
[1] = system: Bacillus subtilis (BG125); assay: Shake flask growth of BG125 in 1% SBG (Klett reading and flask pH); format: cell-based; conditions: for growth in shake flask compared to other flasks: 1% SBG pH 7, 37° C., 3 g/l (44 mM) sodium formate and/or 80 mM MOPS (FIG. 5)
Procedure: (§1) The Bacillus subtilis strain used was a derivative of I168 called BG125 (hisA1 thr5 trpC2) provided by J. A. Hoch. […] MM294 competent cells (Ausubel et al. 1992, Short Protocols in Molecular Biology. John Wiley and Sons, New York) were used for plasmid construction and propagation. LB broth and agar were used for growing MM294 cells and were supplemented with 50 ug/ml carbenicillin for selection. BG125 was grown on LB agar or in LB liquid medium supplemented with 10 μg/ml of kanamycin for selection.
Trimethaprim was dissolved in 50% ethanol and added to a final concentration of 50 ug/ml where indicated when the growth had reached a Klett reading between 20-30 units. The additions for trimethaprim experiments were added at the following final concentrations: 10 ug/ml glycine, 10 ug/ml methionine, 50 ug/ml thymidine, 20 ug/ml adenosine, and 20 ug/ml guanosine.
(§2) Prior to shake flask experiments BG125 was grown from frozen stocks onto LB agar and grown overnight at 37° C. Cells were removed from the plates to 6 mls of SBG1% in test-tubes and grown at 37° C. for three hours. 0.2 mls of the seed culture was used to inoculate a pre-warmed 300 ml nephlometer flask containing 20 mls of the appropriate media. Flasks were incubated at 37° C. (except where indicated) and 300 rpm in a New Brunswick Scientific Shaker. At the indicated time points, the amount of cell growth was determined by a Klett-Summerson Photoelectric Colorimeter, the pH of the flask was taken using a Corning pH/iometer, and 1.25 mls was removed for further processing. The sample was spun in an eppendorf microfuge and 1 ml of supernatant was removed and mixed with 30 μls of perchloric acid HPLC analysis. The remaining supernatant was saved for glucose analysis. All samples were stored at −70° C. until analysis. Medium pH titrations were performed by the stepwise addition of HCl followed by pH measurement. The bactericidal tests of pH and formate on B. subtilis were carried out by growing BG125 as described above in SBG1% to a density of 5×10^6 cfu/ml. The cells were then adjusted to a concentration of 5×10^4 cfu/ml with buffered SBG1% adjusted to the pH indicated, with and without 50 mM formate. Cultures were then incubated at 37° C. with shaking for 3 hours. Samples were taken at 0, 1 2 and 3 hours, serially diluted and plated to LB at 37° C. for determination of cell viability.

[2] = Medium pH titration by stepwise addition of HCl; format: physicochemical; conditions: 1% SBG with 3 g/l sodium formate or 80 mM MOPS, HCl added (FIG. 6)
Procedure: as §2, with “At the indicated time points, the amount of cell growth was determined by a Klett-Summerson Photoelectric Colorimeter, the pH of the flask was taken using a Corning pH/iometer, and 1.25 mls was removed for further processing.” left out

[3] = system: Bacillus subtilis (BG125); assay: Metabolic by-products (HPLC) and glucose in shake flask supernatants; format: cell-based; conditions: flasks of FIG. 5: 3 g/l sodium formate, 80 mM MOPS; control about 1.5 g/L
Procedure: as §2, with “At the indicated time points, the amount of cell growth was determined by a Klett-Summerson Photoelectric Colorimeter, the pH of the flask was taken using a Corning pH/iometer, and 1.25 mls was removed for further processing.” left out

[4] = system: Bacillus subtilis (BG125); assay: Bactericidal tests of pH and formate (cell viability by plating); format: cell-based
Procedure: as §1, §2

[5] = system: BG125 with yrhG (FTAP 1) gene interruption; assay: Shake flask growth of BG125 with interruption of yrhG (FTAP 1); format: cell-based, Bacillus subtilis; conditions: 1% SBG, 3 g/l formate
Description: (§3) The PCR product was digested with BamHI and PstI and ligated with the 5.3-Kb BamHI-PstI fragment from plasmid pUC/Ts/Kan to construct the yrhG-homologue interruption plasmid pTRANS1. […] The PCR product was digested with BamHI and PstI and ligated with the 5.3-Kb BamHI-PstI fragment from plasmid pUC/Ts/Kan to construct the ywcJ-homologue interruption plasmid. […] The sequencing primers used were the mp19/pUC19 24-mer reverse sequencing primer and the mp19/pUC19 24-mer sequencing primer from New England Biolabs.
(§4) Resulting kanamycin resistant transformants were grown overnight in LB liquid medium containing kanamycin at 45° C. Integrants were plated and then colony purified on LB plates containing kanamycin at 45° C. Isolated colonies were then frozen in LB liquid medium plus 30% glycerol at −70° C. for preservation.
(§5) Prior to shake flask experiments BG125 was grown from frozen stocks onto LB agar and grown overnight at 37° C. Cells were removed from the plates to 6 mls of SBG1% in test-tubes and grown at 37° C. for three hours. 0.2 mls of the seed culture was used to inoculate a pre-warmed 300 ml nephlometer flask containing 20 mls of the appropriate media. Flasks were incubated at 37° C. (except where indicated) and 300 rpm in a New Brunswick Scientific Shaker. […]

[6] = system: BG125 with ywcJ (FTAP 2) gene interruption; assay: Shake flask growth of BG125 with interruption of ywcJ (FTAP 2); format: cell-based, Bacillus subtilis; conditions: 1% SBG, 3 g/l formate, ywcJ (FTAP 2) interruption (FIG. 17)
Description: as §3, §4, §5

SMILES | growth in shake flask compared to other flasks [1] | buffering activity in pH titration [2] | acetate level reached [3] [g/L] | lag in the initial growth rate ([1]; 3 g/l sodium formate, 1% SBG) | rate of growth when formate was added ([1]; flask containing trimethaprim and growth enhancing additives (FIG. 11)) | duration of the initial lag period ([1]; higher concentrations of sodium formate, up to 21 g/l (FIG. 7)) | culture density reached after the lag period ([1]; sodium formate up to 21 g/l (FIG. 7), versus control flask) | loss of viability ([4]; pH 3.6, 50 mM formate, also without formate) | percent of survivors based on the initial titer ([4]; pH 3.6, one hour, 50 mM formate, 1.8 % without formate) [%] | percent survivors ([4]; pH 4.0, 3 hours, 50 mM formate, 38 % without formate) [%] | viability ([4]; pH 4.6, 50 mM formate) | viability ([4]; pH 7.0, 50 mM formate) | decrease in the growth enhancement normally seen with exogenous formate ([5]; yrhG (FTAP1) interruption (FIG. 16)) [%] | growth enhancement effect of formate in interrupted strain ([5]; yrhG interruption (FIG. 16)) | effect of formate on growth of interrupted strain [6] | effect on growth compared to SBG1% alone ([1]; trimethaprim 50 ug/ml added at Klett 20-30, SBG1% (FIG. 11))
O=S(=O)(O)CCCN1CCOCC1 [MOPS, reference compound] | near the levels of the formate containing flask | showed buffering activity in the expected range | ~2 |  |  |  |  |  |  |  |  |  |  |  |  | 
O=C[O-].[Na+] [sodium formate, Sodium formate] | more total growth | little buffering activity down to pH 5.0 |  | slight lag | significantly reduced | correlation between increasing concentrations of formate and the duration of the initial lag period | reached higher densities than the control flask | lost complete viability within two hours | 0.13 | 1.2 | no decline in viability | no decline of viability | ~50 | reduced the normal growth enhancement effect of formate by half | toxic effect which caused a decline of growth well below growth of the control strain with out formate | 
COc1cc(Cc2cnc(N)nc2N)cc(OC)c1OC [trimethaprim, Trimethaprim, reference compound] |  |  |  |  |  |  |  |  |  |  |  |  |  |  |  | inhibitory effect
